The subject of this assay is nucleoside diphosphate kinase. The assay can be described thus: Michaelis constant Km of uridine triphosphate synthesis using. The class given is biochemical, rat. Conditions: uridine diphosphate as substrate, adenosine triphosphate as phosphate donor, 30° C., Hanes-Woolf plot. The procedure: The Michaelis constant Km can be determined through determination of the dependence of the initial enzyme reaction velocity on the substrate concentration in accordance with the method reported by Agarwal et al. (described in Methods of Enzymology, 1978, Vol. 51, pp. 483-491). (D4-1) in a purified form is used for the measurement of the Michaelis constant Km. The inhibitory concentration IC50 is determined by the method described above. […]
(D4-1-2) obtained in Preparation 8 was dissolved in 890 μL of aqueous solution 7 (50 mM phosphate buffer (pH of 7.5, 25° C.) containing 5 mM magnesium chloride and 100 mM adenosine triphosphate (available from Sigma-Aldrich Corporation)) in a 1.5 mL-tube. […] The supernatant (80 μL) was analyzed by HPLC, and the peak areas of uridine triphosphate were recorded.
Solutions were prepared by changing the molar concentration of sodium uridine diphosphate in substrate solution [2-1] to 5 mM (substrate solution [2-2]), 2 mM (substrate solution [2-3]), 1 mM (substrate solution [2-4]), and 0.3 mM (substrate solution [2-5]). […] The peak areas of uridine triphosphate were recorded for enzyme reaction solutions (IV-2-2) to (IV-2-5) in a similar manner for enzyme reaction solution (IV-2-1). […]

Broadly, the Km is the substrate concentration at which the rate is half of its maximum.

`O=c1ccn([C@@H]2O[C@H](COP(=O)(O)OP(=O)(O)O)[C@@H](O)[C@H]2O)c(=O)[nH]1` [uridine diphosphate]: the Michaelis-Menten constant (Km) is 250 µM.

Values taken from patent US9670514B2, “Method for producing polysaccharide” (SANYO CHEMICAL INDUSTRIES, LTD., priority 2011, dated 2017).
